From patent publication US20210263039A1, “APPLICATION OF NIEMANN-PICK C1 PROTEIN IN DIAGNOSIS AND TREATMENT OF CANCER” (BEIJING PROTEOME RESEARCH CENTER, priority 2018, published 2021)
Where “and” joins values, the source holds several entries; their conditions need not be identical. Equal values may be shown once.

Assays:
[1] = tested on: Huh7 liver cancer cell line; assay: CCK8 proliferation experiment, Huh7; format: cell-based, human; conditions: inhibitor 10 μM and 20 μM groups vs 1‰ DMSO, OD 450 nm at 0-72 h
Method: (§1) 1) On the first day, after routine trypsinization and counting of cells in a 60 mm culture dish, the cells were seeded onto four 96-well plates at a density of 5000 cells/well.
(§2) 2) On the second day, after about 24 hours of culture, the cell growth was in the logarithmic growth phase and the culture medium was replaced with a new culture medium with different concentrations of SOAT1 inhibitor in a volume of 100 μL/well. 10 μM group, 20 μM group and control group (1‰ DMSO) were set, each group included three repeated wells. 10% CCK8 (100 μL/well) was added to the wells of one 96-well plate, and OD value of 0 h was measured at 450 nm after 1 h, with cell-free wells as background.
(§3) 3) On the third day, 10% CCK8 was added to the wells of one 96-well plate and OD value of 24 h was measured at 450 nm after 1 h.
(§4) 4) On the fourth day, 10% CCK8 was added to the wells of one 96-well plate and OD value of 48 h was measured at 450 nm after 1 h.
(§5) 5) On the fifth day, 10% CCK8 was added to the wells of the last 96-well plate and OD value of 72 h was measured at 450 nm after 1 h.
(§6) 6) OD values at all time points were summarized and a growth curve was drawn.

[2] = tested on: colon cancer cell line HCT116; assay: CCK8 proliferation experiment, HCT116; format: cell-based, human
Method: as §1, §2, §3, §4, §5, §6

[3] = tested on: non-small cell lung cancer cell line A549; assay: CCK8 proliferation experiment, A549; format: cell-based, human
Method: as §1, §2, §3, §4, §5, §6

[4] = tested on: PLC/PRF/5 liver cancer cell line; assay: CCK8 proliferation experiment, PLC/PRF/5; format: cell-based, human; conditions: inhibitor 10 μM and 20 μM groups vs 1‰ DMSO, OD 450 nm at 0-72 h
Method: (§7) 1) On the first day, PLC/PRF/5 or HepG2 cells were seeded onto a 6-well plate.
(§8) 2) On the second day, when the cell confluence was about 40-50%, NPC1-sh or NPC1-control lentivirus was added at 200 μl/well for virus infection.
(§9) 3) On the third day, puromycin was added to infected PLC/PRF/5 or HepG2 cells to a final concentration of 2 μg/mL for selection.
(§10) 4) On the sixth day, part of the cells was collected according to the conventional method for CCK8 experiment, and part of the cells were lysed to obtain proteins and subjected to Western blotting. […]
as §2, with “10 μM group, 20 μM group and control group (1‰ DMSO) were set, each group included three repeated wells.” left out
as §3, §4
(§11) 5) On the fifth day, 10% CCK8 was added to the wells of the last 96-well plate and OD value of 72 h was measured at 450 nm after 1 h. […]

[5] = tested on: cervical cancer cell line Hela; assay: CCK8 proliferation experiment, Hela; format: cell-based, human
Method: as §1, §2, §3, §4, §5, §6

STAT3 signaling pathway = STAT3 signaling pathway activation after IL6 stimulation (STAT3-Y705 antibody); format: cell-based
Source text: The conventional western blotting method was adopted.
STAT3-Y705 (EP2147Y) antibody was purchased from Abcam.

[6] = tested on: HepG2 liver cancer cell line; assay: CCK8 proliferation experiment, HepG2; format: cell-based, human; conditions: inhibitor 10 μM and 20 μM groups vs 1‰ DMSO, OD 450 nm at 0-72 h
Method: as §7, §8, §9, §10
as §2, with “10 μM group, 20 μM group and control group (1‰ DMSO) were set, each group included three repeated wells.” left out
as §3, §4, §11

[7] = tested on: MHCC97H liver cancer cell line; assay: CCK8 proliferation experiment, MHCC97H; format: cell-based, human; conditions: inhibitor 10 μM and 20 μM groups vs 1‰ DMSO, OD 450 nm at 0-72 h
Method: as §1, §2, §3, §4, §5, §6

[8] = tested on: esophageal cancer cell line ECA109; assay: CCK8 proliferation experiment, ECA109; format: cell-based, human
Method: as §1, §2, §3, §4, §5, §6

IL6R = assay: sIL6R ELISA, shedding of IL6R from the cell membrane; format: cell-based
Method: (§12) Reagents: Cholesterol Cell-Based Detection Assay Kit (No10009779) was purchased from Cayman. Human sIL6R ELISA kit (BMS214) was purchased from ebioscience. The relevant experiments were conducted according to the instructions.

[9] = tested on: human hepatocarcinoma HepG2 liver orthotopic transplantation tumors; assay: Liver orthotopic transplantation tumors in nude mice bearing human hepatocarcinoma HepG2 cells; format: in vivo
Source text: A total of 30 female Nu/Nu nude mice aged 5-7 weeks and weighing 18.0-21.0 g were purchased from Beijing Vital River Laboratory Animal Technology Co., Ltd., animal certificate was SCXK (JING)-2015-0001. The test animals were kept in sterile independent ventilation cages (IVC), with 5-6 mice per cage. The litter was corncob litter sterilized by ^60Co radiation, with a particle size of 4-6 mm. The animals were fed with sterilized feed specially formulated for mice and were given pure water to drink freely. The temperature in the animal laboratory was maintained at about 25° C., the relative humidity was maintained at 40-70%, and the daily light was 12 hours.
The cells in the logarithmic growth phase were digested with trypsin and collected, washed and resuspended with normal saline, so that the final cell concentration was about 1×10^7 cells/ml suspension. 0.2 ml of tumor cell suspension was injected under the skin of the right forelimb axillary in nude mice, and the tumor-bearing nude mice were established for passage and preservation.
When the subcutaneous tumor volume of the nude mice for preservation grew to 1000-1500 mm^3, tumors were removed and cut into tumor blocks of about 1.0 mm^3 for use under aseptic conditions. The nude mice to be operated were anesthetized and fixed on the operating table, and the abdominal skin was disinfected. An incision of about 1 cm was made in the upper right abdomen to expose the liver and the animal was covered with surgical drapes. The prepared tumor block was put into a special inoculation trocar, the tumor block was implanted into the liver with the trocar, and the bleeding wound was treated with a sterile cotton swab to stop bleeding. Then the liver after the operation was put back into the abdominal cavity of the mouse, and the abdominal muscles and skin of the incision were sutured sequentially with No. 4/0 surgical suture needle.
The experiment preset model control group and U18666A group.
Model animals were examined by B-ultrasound 3 weeks after operation, and grouped randomly according to B-ultrasound results. The test drug U18666A was administered intraperitoneally, once a day.
After the experiment, the animals were sacrificed by cervical dislocation. The liver was dissected, and the tumors visible to the naked eye were removed and weighed. All dissected tissues were preserved in a 4% formaldehyde solution for routine pathological examination.
Data were represented as x±SD; Tumor growth inhibition rate=(tumor weight in the control group−tumor weight in the administration group)/tumor weight in the control group×100%. All analyses were completed with GrghPad Prism software, and P<0.05 was considered to indicate a significant difference.

[10] = tested on: plasma membrane cholesterol; assay: Filipin III-based cholesterol staining of the plasma membrane; format: cell-based
Method: as §12

[11] = tested on: leukemia cell line Jurkat; assay: CCK8 proliferation experiment, Jurkat; format: cell-based, human
Method: as §1, §2, §3, §4, §5, §6

liver cancer cells = assay: Migration of liver cancer cells; format: cell-based
[12] = liver cancer patients; cited from earlier work

SMILES	proliferation of liver cancer cells (CCK8 growth curve) [1]	proliferation of common cancer cell lines [2]	proliferation of common cancer cell lines [3]	proliferation of liver cancer cells (CCK8 growth curve) [4]	proliferation of common cancer cell lines [5]	activation of STAT3 signaling pathway (STAT3 signaling pathway)	proliferation of liver cancer cells (CCK8 growth curve) [6]	proliferation of liver cancer cells (CCK8 growth curve) [7]	proliferation of common cancer cell lines [8]	shedding of IL6R receptor on the cell membrane (IL6R)	Average weight (g) Begining ([9]; body weight at beginning, nude mice, x±SD)	Average weight (g) End ([9]; body weight at end, i.p., 20 mg/kg, once a day, 23 days, x±SD)	Tumor growth inhibition rate (%) ([9]; by tumor weight vs control group, i.p., 20 mg/kg, once a day, 23 days)	Tumor weight ([9]; group mean x±SD, i.p., 20 mg/kg, once a day, 23 days)	Tumor weight (g), individual tumors ([9]; single animals of the group, i.p., 20 mg/kg, once a day, 23 days, 20 mg/kg)	plasma membrane cholesterol [10]	proliferation of common cancer cell lines [11]	migration of liver cancer cells (liver cancer cells)	prolongation of the survival period of patients [12]
CCN(CC)CCO[C@H]1CC[C@@]2(C)C(=CC[C@@H]3[C@@H]2CC[C@]2(C)C(=O)CC[C@@H]32)C1.Cl [U18666A]	significantly inhibit the proliferation	significantly inhibited the proliferation	significantly inhibited the proliferation	significantly inhibit the proliferation	significantly inhibited the proliferation	blocked	significantly inhibit the proliferation	significantly inhibit the proliferation	significantly inhibited the proliferation	increased shedding	23.74 ± 0.86 g	23.34 ± 2.29 g	62.1%	0.3574 ± 0.3914 g	0.0333 g and 0.0916 g and 0.0957 g and 0.0958 g and 0.1653 g and 0.3852 g and 0.5450 g and 0.5512 g and 1.2533 g	significantly down-regulated	significantly inhibited the proliferation	significantly inhibit	–
CNC(=O)c1cc(Oc2ccc(NC(=O)Nc3ccc(Cl)c(C(F)(F)F)c3)cc2)ccn1 [Sorafenib]	–	–	–	–	–	–	–	–	–	–	–	–	–	–	–	–	–	–	3 months
